From patent publication US6737383B1, “Herbicidal oxadiazolidines” (priority 1999, dated 2004)

How the values were obtained:
blackgrass = test: Test B pre/postemergence blackgrass; format: in vivo, Alopecurus myosuroides
How it was run: (§1)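 Test chemicals in a non-phytotoxic solvent mixture with surfactant were sprayed preemergence onto planted seeds and postemergence onto plants 2 to 18 cm tall (1- to 4-leaf stage). After twelve to sixteen days in a greenhouse, injury was visually rated against untreated controls from 0 (no effect) to 10 (complete control).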

wild oat = test: Test B pre/postemergence wild oat; format: in vivo, Avena fatua
How it was run: as §1

bedstraw = test: Test B pre/postemergence bedstraw; format: in vivo, Galium aparine
How it was run: as §1

soybean = test: Test B pre/postemergence soybean; format: in vivo, Glycine max
How it was run: as §1

crabgrass = test: Test B pre/postemergence crabgrass; format: in vivo, Digitaria sanguinalis
How it was run: as §1

cocklebur = test: Test B pre/postemergence cocklebur; format: in vivo, Xanthium strumarium
How it was run: as §1

corn = test: Test B pre/postemergence corn; format: in vivo, Zea mays
How it was run: as §1

purple nutsedge = test: Test B pre/postemergence purple nutsedge; format: in vivo, Cyperus rotundus
How it was run: as §1

velvetleaf = test: Test B pre/postemergence velvetleaf; format: in vivo, Abutilon theophrasti
How it was run: as §1

surinam grass = test: Test B pre/postemergence surinam grass; format: in vivo, Brachiaria decumbens
How it was run: as §1

wheat = test: Test B pre/postemergence wheat; format: in vivo, Triticum aestivum
How it was run: as §1

morningglory = test: Test B pre/postemergence morningglory; format: in vivo, Ipomoea hederacea
How it was run: as §1

giant foxtail = test: Test B pre/postemergence giant foxtail; format: in vivo, Setaria faberii
How it was run: as §1

sugar beet = test: Test B pre/postemergence sugar beet; format: in vivo, Beta vulgaris
How it was run: as §1

pigweed = test: Test B pre/postemergence pigweed; format: in vivo, Amaranthus retroflexus
How it was run: as §1

rape = test: Test B pre/postemergence rape; format: in vivo, Brassica napus
How it was run: as §1

[1] = Postemergence, Rate 62 g/ha, scale of 0 to 10, 0 is no effect, 10 is complete control
[2] = Postemergence, Rate 125 g/ha, scale 0 to 10, 0 is no effect, 10 is complete control
[3] = Postemergence, Rate 500 g/ha, scale 0 to 10, 0 is no effect, 10 is complete control
[4] = Preemergence, Rate 62 g/ha, scale 0 to 10 (0 no effect, 10 complete control)
[5] = Preemergence, Rate 125 g/ha, scale 0 to 10, 0 is no effect, 10 is complete control
[6] = Rate 250 g/ha, Postemergence, scale of 0 to 10 where 0 is no effect and 10 is complete control
[7] = Preemergence, Rate 500 g/ha, scale of 0 to 10 where 0 is no effect and 10 is complete control

## CCC(=O)Cn1c(=O)on(C(=O)N(c2ccc(Cl)cc2)C(C)C)c1=O [Compound 553]
blackgrass; [1]
  Blackgrass plant response rating: 0
blackgrass; [2]
  Blackgrass plant response rating: 0
blackgrass; [3]
  Plant response rating, Blackgrass: 7
blackgrass; [4]
  Blackgrass plant response rating: 7
blackgrass; [5]
  Blackgrass plant response rating: 7
blackgrass; Preemergence, Rate 250 g/ha
  Blackgrass plant response rating (0 to 10 scale): 7
blackgrass; [6]
  Plant response rating, Blackgrass: 3
Wild oat; [1]
  Wild oats plant response rating: 0
Wild oat; [3]
  Plant response rating, Wild oats: 2
Wild oat; [4]
  Wild oats plant response rating: 0
Wild oat; [5]
  Wild oats plant response rating: 0
Wild oat; Preemergence, Rate 250 g/ha
  Wild oats plant response rating (0 to 10 scale): 3
Wild oat; [6]
  Plant response rating, Wild oats: 2
bedstraw; [1]
  Bedstraw plant response rating: 0
bedstraw; [2]
  Bedstraw plant response rating: 2
bedstraw; [3]
  Plant response rating, Bedstraw: 7
bedstraw; [4]
  Bedstraw plant response rating: 0
bedstraw; [5]
  Bedstraw plant response rating: 0
bedstraw; Preemergence, Rate 250 g/ha
  Bedstraw plant response rating (0 to 10 scale): 2
bedstraw; [7]
  Bedstraw plant response rating: 10
bedstraw; [6]
  Plant response rating, Bedstraw: 2
soybean; [1]
  Soybean plant response rating: 1
soybean; [4]
  Soybean plant response rating: 0
soybean; [5]
  Soybean plant response rating: 0
soybean; Preemergence, Rate 250 g/ha
  Soybean plant response rating (0 to 10 scale): 0
soybean; [7]
  Soybean plant response rating: 3
soybean; [6]
  Plant response rating, Soybean: 3
crabgrass; [1]
  Crabgrass plant response rating: 0
crabgrass; [2]
  Crabgrass plant response rating: 3
crabgrass; [3]
  Plant response rating, Crabgrass: 9
crabgrass; [4]
  Crabgrass plant response rating: 10
crabgrass; [5]
  Crabgrass plant response rating: 9
crabgrass; Preemergence, Rate 250 g/ha
  Crabgrass plant response rating (0 to 10 scale): 10
crabgrass; [7]
  Crabgrass plant response rating: 10
crabgrass; [6]
  Plant response rating, Crabgrass: 8
cocklebur; [1]
  Cocklebur plant response rating: 0
cocklebur; [3]
  Plant response rating, Cocklebur: 2
cocklebur; [5]
  Cocklebur plant response rating: 0
cocklebur; Preemergence, Rate 250 g/ha
  Cocklebur plant response rating (0 to 10 scale): 0
cocklebur; [7]
  Cocklebur plant response rating: 10
cocklebur; [6]
  Plant response rating, Cocklebur: 0
corn; [1]
  Corn plant response rating: 0
corn; [2]
  Corn plant response rating: 0
corn; [3]
  Plant response rating, Corn: 0
corn; [4]
  Corn plant response rating: 0
corn; [5]
  Corn plant response rating: 0
corn; Preemergence, Rate 250 g/ha
  Corn plant response rating (0 to 10 scale): 0
corn; [7]
  Corn plant response rating: 3
corn; [6]
  Plant response rating, Corn: 0
Purple nutsedge; [1]
  Nutsedge plant response rating: 0
Purple nutsedge; [2]
  Nutsedge plant response rating: 0
Purple nutsedge; [4]
  Nutsedge plant response rating: 0
Purple nutsedge; [5]
  Nutsedge plant response rating: 0
Purple nutsedge; Preemergence, Rate 250 g/ha
  Nutsedge plant response rating (0 to 10 scale): 0
Purple nutsedge; [7]
  Nutsedge plant response rating: 0
Purple nutsedge; [6]
  Plant response rating, Nutsedge: 0
velvetleaf; [4]
  Velvetleaf plant response rating: 0
velvetleaf; [5]
  Velvetleaf plant response rating: 0
velvetleaf; Preemergence, Rate 250 g/ha
  Velvetleaf plant response rating (0 to 10 scale): 0
velvetleaf; [7]
  Velvetleaf plant response rating: 2
velvetleaf; [6]
  Plant response rating, Velvetleaf: 5
Surinam grass; [1]
  B. signalgrass plant response rating: 0
Surinam grass; [2]
  B. signalgrass plant response rating: 0
Surinam grass; [3]
  Plant response rating, B. signalgrass: 5
Surinam grass; [4]
  B. signalgrass plant response rating: 6
Surinam grass; [5]
  B. signalgrass plant response rating: 9
Surinam grass; Preemergence, Rate 250 g/ha
  B. signalgrass plant response rating (0 to 10 scale, 0 is no effect, 10 is complete control): 9
Surinam grass; [7]
  B. signalgrass plant response rating: 8
Surinam grass; [6]
  Plant response rating, B. signalgrass: 3
wheat; [1]
  Wheat plant response rating: 0
wheat; [3]
  Plant response rating, Wheat: 3
wheat; [5]
  Wheat plant response rating: 0
wheat; Preemergence, Rate 250 g/ha
  Wheat plant response rating (0 to 10 scale): 0
wheat; [6]
  Plant response rating, Wheat: 0
morningglory; [1]
  Morningglory plant response rating: 0
morningglory; [2]
  Morningglory plant response rating: 0
morningglory; [3]
  Plant response rating, Morningglory: 0
morningglory; [4]
  Morningglory plant response rating: 0
morningglory; [5]
  Morningglory plant response rating: 0
morningglory; Preemergence, Rate 250 g/ha
  Morningglory plant response rating (0 to 10 scale): 0
morningglory; [7]
  Morningglory plant response rating: 2
morningglory; [6]
  Plant response rating, Morningglory: 0
Giant foxtail; [1]
  Giant foxtail plant response rating: 0
Giant foxtail; [2]
  Giant foxtail plant response rating: 7
Giant foxtail; [3]
  Plant response rating, Giant foxtail: 7
Giant foxtail; [4]
  Giant foxtail plant response rating: 10
Giant foxtail; [5]
  Giant foxtail plant response rating: 10
Giant foxtail; Preemergence, Rate 250 g/ha
  Giant foxtail plant response rating (0 to 10 scale): 10
Giant foxtail; [7]
  Giant foxtail plant response rating: 10
Giant foxtail; [6]
  Plant response rating, Giant foxtail: 6
Sugar beet; [1]
  Sugarbeets plant response rating: 0
Sugar beet; [3]
  Plant response rating, Sugarbeets: 2
Sugar beet; [4]
  Sugarbeets plant response rating: 0
Sugar beet; [5]
  Sugarbeets plant response rating: 3
Sugar beet; Preemergence, Rate 250 g/ha
  Sugarbeets plant response rating (0 to 10 scale): 3
Sugar beet; [6]
  Plant response rating, Sugarbeets: 0
pigweed; [1]
  Redroot pigweed plant response rating: 0
pigweed; [3]
  Plant response rating, Redroot pigweed: 0
pigweed; [4]
  Redroot pigweed plant response rating: 0
pigweed; [5]
  Redroot pigweed plant response rating: 7
pigweed; Preemergence, Rate 250 g/ha
  Redroot pigweed plant response rating (0 to 10 scale): 9
pigweed; [6]
  Plant response rating, Redroot pigweed: 0
rape; [1]
  Rape plant response rating: 2
rape; [2]
  Rape plant response rating: 6
rape; [4]
  Rape plant response rating: 0
rape; [5]
  Rape plant response rating: 3
rape; Preemergence, Rate 250 g/ha
  Rape plant response rating (0 to 10 scale): 3
rape; [6]
  Plant response rating, Rape: 7
